Results published in patent US6586596B2, “Acetylcholine enhancers” (priority 1998, dated 2003).

Tests used:
[1] = tested on: cycloheximide-induced amnesia; assay: Passive avoidance, cycloheximide-induced memory impairment; format: in vivo, male Wistar rats; details: oral, 30 minutes before acquisition trial; cycloheximide 1.5 mg/kg s.q.
Method: (§1) Cutoff latency was set at 600 seconds.
Rats were treated s.q. with cycloheximide (1.5 mg/kg), a protein synthesis inhibitor, immediately after the electric shock.

[2] = biological target: T1, peripheral 5-HT3 receptor (Rattus norvegicus, UniProt P35563); assay: 5-HT-evoked von Bezold-Jarish Effect (B.J.E.) in anesthetized rats; format: in vivo; details: Cm.A 3 to 10 mg/kg
T1 construct: from tissue; host or cells: whole anesthetized rat (peripheral receptors)
T1 sequence (P35563 24-483): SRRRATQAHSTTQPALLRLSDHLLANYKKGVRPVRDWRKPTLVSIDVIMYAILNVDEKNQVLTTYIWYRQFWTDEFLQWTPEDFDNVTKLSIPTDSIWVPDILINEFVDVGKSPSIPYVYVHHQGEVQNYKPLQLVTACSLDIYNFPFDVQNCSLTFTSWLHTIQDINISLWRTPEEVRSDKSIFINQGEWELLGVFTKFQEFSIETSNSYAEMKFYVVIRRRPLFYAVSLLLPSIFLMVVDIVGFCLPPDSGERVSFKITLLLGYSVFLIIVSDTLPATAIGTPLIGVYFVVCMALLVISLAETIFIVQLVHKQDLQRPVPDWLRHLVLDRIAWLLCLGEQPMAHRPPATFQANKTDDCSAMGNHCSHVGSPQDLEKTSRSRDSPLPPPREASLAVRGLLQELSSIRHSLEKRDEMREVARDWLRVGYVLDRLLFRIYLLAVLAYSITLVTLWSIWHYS
Method: A bolus i.v. injection of serotonin (5-HT) (20 μg/kg) caused reflex bradycardia transiently (von Bezold—Jarish Effect: B.J.E.) via activation of peripheral 5-HT3 receptor in anesthetized rats.

[3] = tested on: aged rats (22 month-old); assay: Water maze, aged rats; format: in vivo, male Fischer 344 rats
Text: As compared with young rats, aged rats (22 month-old) were unable shorten the escape latency period. Even after the 11th trial, only a partial decrease in the latency period was evident in the aged rats.

[4] = tested on: extracellular levels of ACh in hippocampus; assay: ACh release in hippocampus, microdialysis in freely moving rats; format: in vivo; details: for ACh content in perfusate increased: hippocampus
Method: ACh content in perfusate obtained from hippocampus (Bregma, A: −5.8 mm, L: 5.0 mm, H: 4.0 mm) of brain were continuously detected by means of HPLC and ECD through the microdialysis system using freely moving rats (See Messamore and Kawashima, supra). After an equilibration period, five fractions were allowed to obtain basal ACh content. Test substances were injected i.p., and thereafter, microdialytic analysis was conducted for 3 hr.

[5] = tested on: scopolamine-induced amnesia; assay: Passive avoidance, scopolamine-induced memory impairment; format: in vivo, male Wistar rats; details: 0.1, 0.3 and 3.0 mg/kg oral, 30 minutes before acquisition trial; scopolamine 0.5 mg/kg i.p.
Method: as §1
Rats were treated i.p. with scopolamine (0.5 mg/kg) 15 minutes before the acquisition trial.

[6] = tested on: scopolamine-induced spatial learning deficit; assay: Water maze, scopolamine-induced deficit in spatial learning; format: in vivo, rats; details: p.o. 60 minutes before each trial; Cm.A 1.0 mg/kg/day; scopolamine 0.5 mg/kg i.p.
Method: A total of 6 trials (2 trials on 1st day, and 1 trial after 2nd day) were conducted to observe the effects of the test compounds. Scopolamine (0.5 mg/kg, i.p.) and the test compounds (p.o.) were administered 30 and 60 minutes before each trial, respectively.

[7] = tested on: Cynomologous monkeys; assay: Hepatotoxic analysis, four-week oral study; format: in vivo; details: oral; for Clinical signs vomiting: four weeks (10, 5, 10 mg/kg/day regimens); on Clinical signs vomiting: key: − no remarkable change; ↑ increase; ↓ decrease; + slight; ++ severe (diarrhea)
Method: During the testing period, these animals were dosed with three different regimens: first, animals were dosed with 10 mg/kg/day for 7 days, followed by 32 days-washout period, second, animals were dosed with 5 mg/kg/day for 14 days, and thereafter the animals were dosed with 10 mg/kg/day for 7 days. The following parameters were examined: body weight, clinical signs, food consumption, blood biochemistry (GOT, GPT, ALP, LDH, γ-GTP, ChE, Bil, T.Pro, Alb, A/G ratio, T.Cho, NEFA, TG).

[8] = biological target: T2, 5HT3 receptor (Rattus norvegicus, UniProt P35563); assay: Ex vivo binding of 5HT3 receptors, (3H)-zacopride autoradiography of brain sections; format: in vivo, Sprague-Dawley rats; details: 10 mg/kg i.p., 30 minutes, amygdala, 0.5 nM (3H)-zacopride
T2 construct: from tissue; host or cells: rat brain sections (amygdala)
T2 sequence (P35563 24-483): T1 sequence (P35563 24-483)
Method: Animals (Sprague-Dawley rats) were injected intraperitoneally with 10 mg/kg Cm. A (in 90% ethanol, 10% water, vehicle) (n=3) or vehicle (n=3). After thirty minutes animals were sacrificed and brains were rapidly dissected and frozen in isopentane maintained at −42° C. Sections (horizontal and coronal) were prepared on a cryostat and maintained at −20° C.
Brain sections were removed from storage and thawed at room temperature for 30 minutes. Total 5HT3 receptor binding was measured in sections incubated with 0.5 nM (^3H)-zacopride (Amerhsam; zacorpide is a 5-HT3 selective ligand) in 50 mM HEPES/TRIS buffer. Nonspecific binding was determined in adjacent sections incubated in the presence of radioligand and 500 nM 5-HT. After a 10 minute incubation at room temperature, sections were washed in icecold buffer (2×1 minute) followed by a 10 second rinse in ice-cold distilled water. Sections were then dried in a stream of cold air overnight. After drying, sections were exposed to x-ray film (Kodak Hyperfilm) and exposed for 4 months.
Autoradiograms were quantified using an automated image analysis system, DAGE camera IMAGE software. Mean optical density measurements were obtained from four individual measurements per group, control (vehicle injected) and Cm. A; background measurements were obtained from an area of x-ray on which no tissue was exposed. […]

## COc1c2c(nc3ccccc13)CN(CCC1CCN(Cc3ccccc3)CC1)C2=O [Cm.A, 2-[2-(1-benzylpiperizin-4-yl)ethyl]-2,3-dihydro-9-methoxy-1H-pyrrolo[3,4-b]quinolin-1-one hemifumarate]
[1]
  latency in retention trial, cycloheximide-induced amnesia: prolonged the shortened latency induced by cycloheximide in a nondose dependent manner
[2]; i.v. pretreatment, E2020 0.1~1 mg/kg, 5-HT 20 μg/kg i.v.
  inhibition of 5-HT-evoked B.J.E. (reflex bradycardia): inhibited B.J.E. dose dependently
[2]; i.v., THA 10 mg/kg, E2020 higher than 1 mg/kg, data not shown
  blood pressure, heart rate and other signs: without any change on blood pressure and heart rate
[3]
  deficit of spatial learning (escape latency): gradually improved the deficit of spatial learning to a level nearly equivalent to young rats
[4]; hippocampus study, i.p., data not shown
  centrally acting cholinergic symptoms (tremor, chewing and yawning): Few centrally acting cholinergic symptoms
[4]; 10 mg/kg i.p.
  ACh content in perfusate increased: 164%
[4]; 30 mg/kg i.p.
  ACh content in perfusate increased: 552%
[5]
  latency in retention trial, reversal of scopolamine effect: significantly reversed the effect of scopolamine
[6]
  deficit in spatial learning (escape latency): improved the deficit in spatial learning induced by scopolamine
[7]; F, four weeks
  Blood biochemistry: ↑: TG
  Clinical signs softstool: ±
  Food consumption: −
[7]; F
  Clinical signs vomiting: −
[7]; M, four weeks
  Blood biochemistry: ↑: TG
  Clinical signs softstool: −
  Food consumption: −
[7]; M
  Clinical signs vomiting: −
[7]; four weeks
  blood biochemical tests: small increase in TG
  clinical signs: minimal adverse clinical signs
  food consumption and body weight: no remarkable change in food consumption and body weight
[8]
  occupancy of 5HT3 receptor sites within the brain: occupies 5HT3 receptor sites within the brain
